Experimental data: patent US11331327B2, “Antibacterial use of halogenated salicylanilides” (UNION therapeutics A/S, priority 2014, dated 2022)
Read-outs that look alike come from different tables or passages of the source.

Test system: S. aureus clinical isolates and S. aureus ATCC 29213
Experiment: MIC assay according to CLSI criteria, Example 2, S. aureus strains
Type: cell-based, Staphylococcus aureus
Conditions: for MIC: Staphylococcus aureus, read-out: MIC
Experimental: Strains were conserved in Luria Bertani (LB) Broth (S. aureus) or Brain Heart Infusion (BHI) (S. pyogenes) supplemented with glycerol 15% (v/v) at −80° C., and reactivated by isolation on LB (S. aureus) or BHI (S. pyogenes) agar plates. Strains were cultivated in Mueller Hinton (MH) Broth-cation adjusted (S. aureus) or BHI (S. pyogenes). All strains were cultivated aerobically (microaerobically for S. pyogenes strains) at 37° C.
Bacterial cultures were stopped in their exponential growth phase and plates were inoculated with the approximate concentration of 5×10^5 cells per well. Plates were incubated at 37° C. for 18 hours (S. aureus) or 24 hours (S. pyogenes).

[1] = ATCC29213, Staphylococcus aureus strains
[2] = S. aureus strains with MIC 0.5 μg/ml

O=C(Nc1ccc([N+](=O)[O-])cc1Cl)c1cc(Cl)ccc1O [Niclosamide, 5-chloro-N-(2-chloro-4-nitrophenyl)-2-hydroxybenz-amide]
27%: MIC distribution (percentage of strains) [2]
0.125 to 0.5 µg/mL: MIC Range values (Staphylococcus aureus strains)
0.125 µg/mL: MIC (ATCC29213, strain E5-1030482) | MIC (ATCC29213, strain E5-1048670) | MIC (ATCC 29213 / MRSA, strain MRSA 07) | MIC (ATCC 29213 / MRSA, strain MRSA 09)
(55/205): MIC distribution (ratio of strains) [2]
0.25 µg/mL: MIC50 [1] | MIC (ATCC29213, strain 9-2642158) | MIC (ATCC29213, strain 9-2955245) | MIC (ATCC29213, strain 000041C) | MIC (ATCC29213, strain 000274T) | MIC (ATCC29213, strain 114660U) | MIC (ATCC29213, strain 115263C) | MIC (ATCC29213, strain 115295C) | MIC (ATCC29213, strain 115370U) | MIC (ATCC29213, strain 115427C) | MIC (ATCC29213, strain 115561C) | MIC (ATCC29213, strain 115584D) | MIC (ATCC29213, strain 115628T) | MIC (ATCC29213, strain 115690C) | MIC (ATCC29213, strain 115810E) | MIC (ATCC29213, strain 116122T) | MIC (ATCC29213, strain E5-1029252) | MIC (ATCC29213, strain E5-1029558) | MIC (ATCC29213, strain E5-1030440) | MIC (ATCC29213, strain E5-1030469) | MIC (ATCC29213, strain E5-1033088) | MIC (ATCC29213, strain E5-1035284) | MIC (ATCC29213, strain E5-1037971) | MIC (ATCC29213, strain E5-1038286) | MIC (ATCC29213, strain E5-1039697) | MIC (ATCC29213, strain E5-1041980) | MIC (ATCC29213, strain E5-1043668) | MIC (ATCC29213, strain E5-1045179) | MIC (ATCC29213, strain E5-1046019) | MIC (ATCC29213, strain E5-1046039) | MIC (ATCC29213, strain E5-1046070) | MIC (ATCC29213, strain E5-1046074) | MIC (ATCC29213, strain E5-1046298) | MIC (ATCC29213, strain E5-1046723) | MIC (ATCC29213, strain E5-1047585) | MIC (ATCC29213, strain E5-1048204) | MIC (ATCC29213, strain E5-1048428) | MIC (ATCC29213, strain E5-1048654) | MIC (ATCC29213, strain EEFIC 01) | MIC (ATCC29213, strain EEFIC 02) | MIC (ATCC29213, strain K000772) | MIC (ATCC29213, strain K000796) | MIC (ATCC29213, strain K000863) | MIC (ATCC29213, strain K000864) | MIC (ATCC29213, strain K000866) | MIC (ATCC29213, strain K115498) | MIC (ATCC29213, strain K115688) | MIC (ATCC29213, strain K115689) | MIC (ATCC29213, strain R000024) | MIC (ATCC29213, strain U115579) | MIC (ATCC 29213 / MRSA, strain MRSA 01) | MIC (ATCC 29213 / MRSA, strain MRSA 02) | MIC (ATCC 29213 / MRSA, strain MRSA 03) | MIC (ATCC 29213 / MRSA, strain MRSA 04) | MIC (ATCC 29213 / MRSA, strain MRSA 05) | MIC (ATCC 29213 / MRSA, strain MRSA 06) | MIC (ATCC 29213 / MRSA, strain MRSA 08) | MIC (ATCC 29213 / MRSA, strain MRSA 10) | MIC (ATCC 29213 / MRSA, strain MRSA 11)
0.5 µg/mL: MIC90 [1] | MIC (ATCC29213, strain 9-1862936) | MIC (ATCC29213, strain 9-2625962) | MIC (ATCC29213, strain 9-26422166) | MIC (ATCC29213, strain 000040C) | MIC (ATCC29213, strain 115015T) | MIC (ATCC29213, strain 115242C) | MIC (ATCC29213, strain 115268C) | MIC (ATCC29213, strain 115273C) | MIC (ATCC29213, strain 115303C) | MIC (ATCC29213, strain 115445C) | MIC (ATCC29213, strain 115691T) | MIC (ATCC29213, strain 115740E) | MIC (ATCC29213, strain 115903T) | MIC (ATCC29213, strain ATCC 29213) | MIC (ATCC29213, strain E5-1030472) | MIC (ATCC29213, strain E5-1033076 (first line, r202)) | MIC (ATCC29213, strain E5-1033076 (second line, r203)) | MIC (ATCC29213, strain E5-1033091) | MIC (ATCC29213, strain E5-1035277) | MIC (ATCC29213, strain E5-1035775) | MIC (ATCC29213, strain E5-1035779) | MIC (ATCC29213, strain E5-1037958) | MIC (ATCC29213, strain E5-1038279) | MIC (ATCC29213, strain E5-1038294) | MIC (ATCC29213, strain E5-1039684) | MIC (ATCC29213, strain E5-1041977) | MIC (ATCC29213, strain E5-1041979) | MIC (ATCC29213, strain E5-1041987) | MIC (ATCC29213, strain E5-1043184) | MIC (ATCC29213, strain E5-1046020) | MIC (ATCC29213, strain E5-1046085) | MIC (ATCC29213, strain E5-1046096) | MIC (ATCC29213, strain E5-1046296) | MIC (ATCC29213, strain E5-1046297) | MIC (ATCC29213, strain E5-1047606) | MIC (ATCC29213, strain E5-1047924) | MIC (ATCC29213, strain R000019) | MIC (ATCC29213, strain R000020)
≤ 0.5 µg/mL: MIC (ATCC29213, all targeted S. aureus strains, including resistant strains)
